Measurements: ChEMBL document CHEMBL3992518, “Peptide Macrocycle Inhibitor of Coagulation Factor XII with Subnanomolar Affinity and High Target Selectivity” (J Med Chem, 2017)
*1 amine or outer side, *2 acyl side, *3 side chain or, on linkers, in order; H or OH if unused. Where a SMILES comes first, the peptide text is derived from it. Bridges are numbered along the chain shown (N, C = ends). TATA = O=C(CC[*:1])N1CN(C(=O)CC[*:2])CN(C(=O)CC[*:3])C1

Target: T1, Coagulation factor XII (Homo sapiens, UniProt P00748)
T1 sequence (P00748 whole entry): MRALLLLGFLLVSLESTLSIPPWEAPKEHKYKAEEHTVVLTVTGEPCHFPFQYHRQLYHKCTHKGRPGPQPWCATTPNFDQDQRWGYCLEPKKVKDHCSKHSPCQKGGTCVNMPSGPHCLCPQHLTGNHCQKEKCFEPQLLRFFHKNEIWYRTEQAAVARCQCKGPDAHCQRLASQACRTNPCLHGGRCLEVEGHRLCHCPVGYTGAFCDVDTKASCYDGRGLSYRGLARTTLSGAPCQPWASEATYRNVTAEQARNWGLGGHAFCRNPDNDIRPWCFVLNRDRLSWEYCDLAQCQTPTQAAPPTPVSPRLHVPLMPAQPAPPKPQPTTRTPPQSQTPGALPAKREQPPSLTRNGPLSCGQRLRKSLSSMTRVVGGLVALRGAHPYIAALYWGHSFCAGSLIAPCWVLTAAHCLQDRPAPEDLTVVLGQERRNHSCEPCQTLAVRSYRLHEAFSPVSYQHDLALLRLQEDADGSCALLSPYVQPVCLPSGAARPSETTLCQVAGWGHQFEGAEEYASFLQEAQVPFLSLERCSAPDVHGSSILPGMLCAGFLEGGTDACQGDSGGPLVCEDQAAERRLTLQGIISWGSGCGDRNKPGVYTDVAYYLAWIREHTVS
Experiment: Inhibition of human beta factor 12a using fluorogenic substrate Boc-Gln-Gly-Arg-AMC preincubated for 10 mins followed by addition of substrate measured every min for 30 mins

SMILES	Ki [µM]
CC[C@H](C)[C@@H]1NC(=O)[C@H](CCC(N)=O)NC(=O)[C@H](CCCNC(=N)N)NC(=O)[C@@H]2CSCCC(=O)N3CN(CN(C3)C(=O)CCSC[C@H](NC(=O)[C@@H](N)CCCNC(=N)N)C(=O)N[C@@H](Cc3ccccc3)C(=O)N[C@@H](CCCNC(=N)N)C(=O)N[C@@H](CC(C)C)C(=O)N3CCC[C@H]3C(=O)N2)C(=O)CCSC[C@@H](C(=O)N[C@@H](CCCNC(=N)N)C(=O)N[C@@H](Cc2c[nH]c3ccccc23)C(=O)O)NC(=O)[C@H](CCCNC(=N)N)NC1=O (H-RCFRLPCRQIRCRW-OH; linker 2-7-12 via TATA)	0.078
CC(C)C[C@@H]1NC(=O)[C@H](CCC(N)=O)NC(=O)[C@H](CCCNC(=N)N)NC(=O)[C@@H]2CSCCC(=O)N3CN(CN(C3)C(=O)CCSC[C@H](NC(=O)[C@@H](N)CCCNC(=N)N)C(=O)N[C@@H](C/C=C/c3ccccc3)C(=O)N[C@@H](CCCNC(=N)N)C(=O)N[C@@H](CC(C)C)C(=O)N3CCC[C@H]3C(=O)N2)C(=O)CCSC[C@@H](C(=O)N[C@@H](CCCNC(=N)N)C(=O)N[C@@H](Cc2c[nH]c3ccccc23)C(=O)O)NC(=O)[C@H](CCCNC(=N)N)NC1=O	0.114
CC(C)C[C@@H]1NC(=O)[C@H](CCC(N)=O)NC(=O)[C@H](CCCNC(=N)N)NC(=O)[C@@H]2CSCCC(=O)N3CN(CN(C3)C(=O)CCSC[C@H](NC(=O)[C@@H](N)CCCNC(=N)N)C(=O)N[C@@H](Cc3ccccc3)C(=O)N[C@@H](CCCNC(=N)N)C(=O)N[C@@H](CC(C)C)C(=O)N[C@@H](CC(N)=O)C(=O)N2)C(=O)CCSC[C@@H](C(=O)N[C@@H](CCCNC(=N)N)C(=O)N[C@@H](Cc2c[nH]c3ccccc23)C(=O)O)NC(=O)[C@H](CCCNC(=N)N)NC1=O (H-RCFRLNCRQLRCRW-OH; linker 2-7-12 via TATA)	0.104

Compounds with a lower Ki, results first:

Ki [µM]	SMILES
0.01	CC(C)C[C@@H]1NC(=O)[C@H](CCC(N)=O)NC(=O)[C@H](CCCNC(=N)N)NC(=O)[C@@H]2CSCCC(=O)N3CN(CN(C3)C(=O)CCSC[C@H](NC(=O)[C@@H](N)CCCNC(=N)N)C(=O)N[C@@H](Cc3cccc4ccccc34)C(=O)N[C@@H](CCCNC(=N)N)C(=O)N[C@@H](CC(C)C)C(=O)N3CCC[C@H]3C(=O)N2)C(=O)CCSC[C@@H](C(=O)N[C@@H](CCCNC(=N)N)C(=O)N[C@@H](Cc2c[nH]c3ccccc23)C(=O)O)NC(=O)[C@H](CCCNC(=N)N)NC1=O
0.0196	CC(C)C[C@@H]1NC(=O)[C@H](CCCNC(=N)N)NC(=O)[C@H](Cc2ccccc2)NC(=O)[C@@H](NC(=O)[C@@H](N)CCCNC(=N)N)CSCCC(=O)N2CN3CN(C2)C(=O)CCSC[C@@H](C(=O)N[C@@H](CCCNC(=N)N)C(=O)N[C@@H](Cc2c[nH]c4ccccc24)C(=O)O)NC(=O)[C@H](CCCNC(=N)N)NC(=O)[C@H](CC(C)C)NC(=O)[C@H](CCC(N)=O)NC(=O)[C@H](CCCNC(=N)N)NC(=O)[C@H](CSCCC3=O)NC(=O)[C@H](C)NC1=O (H-RCFRLACRQLRCRW-OH; linker 2-7-12 via TATA)
0.0177	CC(C)C[C@@H]1NC(=O)[C@H](CCCNC(=N)N)NC(=O)[C@H](Cc2ccccc2)NC(=O)[C@@H](NC(=O)[C@@H](N)CCCNC(=N)N)CSCCC(=O)N2CN3CN(C2)C(=O)CCSC[C@H](NC(=O)[C@@H]2CCCN2C1=O)C(=O)N[C@@H](CCCNC(=N)N)C(=O)N[C@@H](CCC(N)=O)C(=O)N[C@@H](CC(C)(C)C)C(=O)N[C@@H](CCCNC(=N)N)C(=O)N[C@H](C(=O)N[C@@H](CCCNC(=N)N)C(=O)N[C@@H](Cc1c[nH]c2ccccc12)C(=O)O)CSCCC3=O
0.057	CC(C)C[C@@H]1NC(=O)[C@H](CCC(N)=O)NC(=O)[C@H](CCCNC(=N)N)NC(=O)[C@@H]2CSCCC(=O)N3CN(CN(C3)C(=O)CCSC[C@H](NC(=O)[C@@H](N)CCCNC(=N)N)C(=O)N[C@@H](Cc3ccncc3)C(=O)N[C@@H](CCCNC(=N)N)C(=O)N[C@@H](CC(C)C)C(=O)N3CCC[C@H]3C(=O)N2)C(=O)CCSC[C@@H](C(=O)N[C@@H](CCCNC(=N)N)C(=O)N[C@@H](Cc2c[nH]c3ccccc23)C(=O)O)NC(=O)[C@H](CCCNC(=N)N)NC1=O
